Assay results reported in ChEMBL document CHEMBL3507680, “University of Dundee, Gates Library screen for HepG2 cell viability”.

Assay: Human HepG2 cell viability assay in 384 well format
Format: toxicity, cell-based
Design: dose 125 nL, time 70.5 hour; cytotoxicity at 70.5 h: concentration not given beside the values
Details: HepG2 cells, read-out: Inhibition

Row | Structure (SMILES) | cytotoxicity at 70.5 h [%]
1 | CCC(=O)N1CSCC1C(=O)N(C)CCc1ccccc1 (stereo not drawn) | 7.14
2 | O=C(CCNS(=O)(=O)c1cccnc1)N1CCCCC1 | 15.8
3 | O=C(c1ccc(-n2ccnc2)nn1)N1CCCC1CCc1ccccc1 (stereo not drawn) | -19.5
4 | CCc1nc(CN(C)C(=O)NC(C)c2cccc(NC(C)=O)c2)cs1 (stereo not drawn) | 12.9
5 | COc1ccc(Nc2cc(C)nc(C)n2)cc1N1CCCC1=O | -7.1
6 | CCc1nc(CN(C)C(=O)NCc2cccc(NC(C)=O)c2)cs1 | -10.2
7 | c1csc(-c2noc(CN3CCc4c(ncn4C4CC4)C3)n2)c1 | -14.5
8 | CCCC(C#N)NC(=O)COC1CCCCC1 (stereo not drawn) | 6.33
9 | CN(CCc1ccncc1)C(=O)C1CSCN1C(=O)C(C)(C)C (stereo not drawn) | -8.71
10 | c1ccc(-c2noc(CN3CCc4c(ncn4C4CC4)C3)n2)nc1 | -6.92
11 | Cc1ccc(OCC(=O)Nc2cnccc2SCCCO)cc1C | 9.63
12 | COc1ccc(Nc2ccc(C#N)cn2)cc1N1CCCC1=O | 5.76
13 | CC(C)C1CN(S(=O)(=O)c2cccc(C#N)c2)CCS1 (stereo not drawn) | 8.4
14 | Cc1ccc(-c2nc(CN3CCn4c(nnc4C4CC4)C3)no2)cc1 | 10.2
15 | CN1CCC(NC(=O)CCCc2cc(Cl)sc2Cl)C1=O (stereo not drawn) | -9.29
16 | Cc1ccsc1CNC(=O)c1ccc2c(c1)CCC(=O)N2 | 16.1
17 | O=C1CCc2cc(C(=O)NCc3ccc(Cl)s3)ccc2N1 | -3.83
18 | Cn1ccc(C(=O)NCCOc2ccc3c(c2)OCO3)cc1=O | -6.82
19 | CCOc1ccc(NC(C)C(=O)Nc2cc(C)no2)cc1 (stereo not drawn) | -5.28
20 | Cc1ccc(S(=O)(=O)CCC(=O)NCc2nnc3n2CCC3)cc1 | -3.09
21 | CCOc1ccc(CN(C)C(C)C(=O)Nc2cc(C)no2)cc1 (stereo not drawn) | -5.64
22 | COc1ccc(OCCN(C)c2cc(C)nc(N)n2)cc1 | -6.24
23 | NC(=O)CN(Cc1ccc(Br)cc1)C(=O)c1ccncc1 | -2.62
24 | NC(=O)CN(Cc1ccc(Br)cc1)C(=O)c1cnccn1 | -5.94

Row | Structure (SMILES) | cytotoxicity at 70.5 h [%]
25 | NC(=O)CN(Cc1ccc(Br)cc1)C(=O)c1ccccn1 | -4.46
26 | CC(C)c1nn(C)c(N(C)C)c1CNC1CCCCNC1=O (stereo not drawn) | -4.04
27 | Cc1nn(C)c(N2CCOCC2)c1CNC1CCCCNC1=O (stereo not drawn) | -5.43
28 | Cc1nn(C)c(Oc2ccccc2)c1CNC1CCCCNC1=O (stereo not drawn) | -6.4
29 | Cn1cc(C2CCCN2C(=O)CCn2c(=O)oc3ccccc32)cn1 (stereo not drawn) | -2.42
30 | Cc1cc(N(Cc2ccon2)S(C)(=O)=O)ccc1Br | 17.3
31 | O=C(c1cc(-n2cccn2)ccn1)N(CC1CCC1)CC(F)(F)F | -3.45
32 | Cn1ccc(C(=O)NCCOc2ccc3c(c2)CCC3)cc1=O | -3.77
33 | Cc1cc(CNC2(c3ccccc3)CCCCC2)no1 | -4.77
34 | O=C(c1cc(-n2cccn2)ccn1)N(CC(F)(F)F)C1CCCC1 | -2.14
35 | CC(O)CN1CCC(CN(C)CC(=O)NC(C)C)CC1 (stereo not drawn) | -1.64
36 | CC(O)CN1CCC(CN(C)CCC(=O)NC2CCCCC2)CC1 (stereo not drawn) | 14.6
37 | Clc1ccc(CN2CCc3c(ncn3C3CC3)C2)c2ncccc12 | -2.64
38 | Cc1cnn(CCNCc2c(C)nn(CCO)c2C)c1 | 2.83
39 | CC(C)Cc1ncc(CNc2cnccc2CO)s1 | -1.94
40 | Cc1cc(C)n(Cc2cccc(C(=O)N(CCC#N)CCC#N)c2)n1 | -0.535
41 | COC(=O)CCCN(C)C(=O)c1cc(F)cc2[nH]cnc12 | 23.5
42 | COC(=O)NC1(C(=O)NCc2ccc(-c3ccn[nH]3)cc2)CCCC1 | -0.909
43 | CCNC(=O)NC1CN(CC(=O)NCc2ccccc2C)C[C@@H]1OC (stereo partly drawn) | 1.44
44 | COc1ccc(S(=O)(=O)N2CC(CC(=O)O)c3ccccc32)cc1 (stereo not drawn) | -0.927
45 | O=C(c1[nH]nc2c1CCCC2)N1CCC(OCCN2CCCCC2)C1 (stereo not drawn) | -2.83
46 | CCNC(=O)NC1CN(Cc2ccccc2N(C)C)C[C@@H]1OC (stereo partly drawn) | 5.63
47 | CCC(C)(CC(=O)O)NC(=O)Cc1ccccc1F (stereo not drawn) | 26.6
48 | CSC1(CNC(=O)NC(C)c2ccc(F)c(F)c2)CCOCC1 (stereo not drawn) | -1.76

Row | Structure (SMILES) | cytotoxicity at 70.5 h [%]
49 | CN(C)C(=O)Cc1ccccc1NCc1cccc(F)c1F | 0.378
50 | CCN(CCC(=O)OC)C(=O)c1cccc(Cn2nc(C)cc2C)c1 | 4.14
51 | COc1ccc(C)c2c1N(C(=O)c1cnc(C)s1)CCC2 | -1.73
52 | O=S(=O)(CCSc1nccn1C1CC1)c1ccccc1 | -5.9
53 | CSC1(CNC(=O)NC(C)Cc2cccc(F)c2)CCOCC1 (stereo not drawn) | 0.72
54 | Cc1csc(CNc2cnn(CC(C)C)c2)n1 | 3.86
55 | Cc1c(C(=O)NS(=O)(=O)c2ccc(F)cc2)cnn1CC(C)C | 20.5
56 | CC(C)(C)OC(=O)N1CCCN1C(=O)c1cccc(F)c1F | -5.84
57 | CCC(C)(CC(=O)O)NC(=O)Cc1ccccc1Br (stereo not drawn) | -4.24
58 | CCN(Cc1nc(C2CC2)no1)Cc1ccc(C#N)cc1F | -3.69
59 | CC(NC1CCN(CCS(C)(=O)=O)CC1)c1cnn(C(C)C)c1 (stereo not drawn) | -10.2
60 | COCc1noc(Cc2cc(Cl)c3c(c2)OCCCO3)n1 | -4.84
61 | COCC(C)NC(=O)CN1CCC(CO)CC1 (stereo not drawn) | -3.9
62 | CC(Cn1cccn1)NC(=O)N(C)Cc1ccc(C(N)=O)cc1 (stereo not drawn) | 37.9
63 | Cn1cc(NC(=O)c2cccc3cccnc23)ccc1=O | -18.3
64 | O=C1CCC(C(=O)Nc2ccc(=O)n(Cc3ccccc3Cl)c2)N1 (stereo not drawn) | -4.13
65 | O=C1NCC(C(=O)Nc2ccc(=O)n(Cc3ccccc3Cl)c2)N1 (stereo not drawn) | -21.3
66 | COc1ccc2c(OCC(=O)NCC(F)(F)F)ccnc2c1 | -15.8
67 | CN(C(=O)Nc1nncs1)C1CCN(c2ccccc2Cl)C1=O (stereo not drawn) | -21.1
68 | COc1cc(F)c(S(=O)(=O)Nc2cnc(O)cc2C)cc1OC | -11.9
69 | Cc1cc(O)ncc1NS(=O)(=O)c1cccc(F)c1F | -19.8
70 | CCC1C(=O)NCCN1c1nccc(C)n1 (stereo not drawn) | 45.2
71 | c1cnn(CCNCc2ccc(N3CCCCC3)cc2)c1 | -13.6
72 | CC(C)c1nsc(N2CCSCC2)n1 | -22.2

Row | Structure (SMILES) | cytotoxicity at 70.5 h [%]
73 | CC(=O)N(Cc1noc(C)n1)C1CCN(CC2(O)CCCCC2)C1 (stereo not drawn) | -27.3
74 | O=C(Nc1cccc(OCc2ccc(F)cc2)c1)C1COCCO1 (stereo not drawn) | -4.75
75 | Cc1nn(CCO)c(C)c1CNC1CCc2c(Cl)cccc21 (stereo not drawn) | 10.2
76 | CCN(CC)CC(=O)NCCc1csc(N2CCCC2)n1 | -3.59
77 | Cc1ccc(C2COCCN2C(=O)c2ccc(CN(C)C)cc2)o1 (stereo not drawn) | -6.21
78 | CCN(CC1CN(Cc2ncc(C)o2)CCO1)c1cccnn1 (stereo not drawn) | -2.43
79 | COc1cc(C(=O)N(CCC#N)Cc2ccccn2)cc(OC)c1C | -6.63
80 | O=C(c1cnn(-c2ccccc2F)c1)N1CCN(CCO)CC1 | -3.38
81 | CC(C)c1cccc(CSc2nnc(CN3CCCC3=O)o2)n1 | -8
82 | CCN(CC1CN(CCc2ccccn2)CCO1)c1cccnn1 (stereo not drawn) | -3.03
83 | COCc1noc(C2(c3ccc(F)cc3)CCOCC2)n1 | 28.8
84 | O=C(NCC1(N2CCOCC2)CCSC1)Nc1ccc(F)cc1 (stereo not drawn) | -6.94
85 | CCn1cc(NC(=O)NCC2(N3CCOCC3)CCSC2)cn1 (stereo not drawn) | -1.94
86 | O=C(NCc1nnc2n1CCC2)N(Cc1ccco1)C1CC1 | -10.5
87 | COc1ccnc(N2CCN(C(=O)CCc3nccs3)CC2)n1 | -10.9
88 | Cc1ccccc1C(=O)NCc1ccc(N2CCNC(=O)C2)c(F)c1 | -8
89 | CCCn1c(C)cc(C(=O)CN2C(=O)c3ccccc3CS2(=O)=O)c1C | -10.8
90 | Cc1cc(C)n(CC2CCCN2CCCS(=O)(=O)N(C)C)n1 (stereo not drawn) | -9.4
91 | CCc1nc(COc2ccc(OCc3cnn(C)c3)cc2)no1 | -2.52
92 | COCc1noc(C2(c3ccc(Br)cc3)CCOCC2)n1 | -10.1
93 | O=C(NCc1nnc2n1CCCC2)N(Cc1ccccc1F)C1CC1 | -11.1
94 | CCc1noc(CNc2ccc(F)cc2OCC2CC2)n1 | -7.55
95 | CS(=O)(=O)CCC(=O)NC1(c2cccc(Br)c2)CC1 | -8.28
96 | CN(Cc1ccco1)Cc1ccccc1CNC(=O)c1cc[nH]n1 | -6.12

Row | Structure (SMILES) | cytotoxicity at 70.5 h [%]
97 | O=C(Nc1ccc(CCN2CCC(O)CC2)cc1)Nc1cccnc1 | -1.85
98 | CC(c1ccc(Cl)cc1)N1CCN(CCNS(C)(=O)=O)CC1 (stereo not drawn) | -0.037
99 | c1ccc(-c2cc(CN3CCC(c4ccn[nH]4)CC3)on2)cc1 | -7.56
100 | CCN(CCC(F)(F)F)C(=O)Nc1cccc(N2CCOCC2)c1 | -7.71
101 | N#CCCCS(=O)(=O)N1CCCC1CC(=O)c1cccs1 (stereo not drawn) | -6.62
102 | CCC(CNC(=O)c1ccc(Br)o1)N1CCc2ccccc2C1 (stereo not drawn) | -7.37
103 | COCCn1nc(C(=O)N2CCCC2c2cccc(F)c2)ccc1=O (stereo not drawn) | -8.14
104 | CC(=O)c1cccc(OCCCC(=O)N(C)Cc2ccccn2)c1 | -2.88
105 | COc1ccc(C(C)=O)c(OCC(=O)NC(C)c2ccc(F)cc2)c1 (stereo not drawn) | -14.9
106 | CCc1nnsc1C(=O)NC1CCN(c2ccccn2)CC1 | 11.2
107 | CN1CCN(Cc2ccccc2CNC(=O)c2ccc(Br)cc2F)CC1 | -4.3
108 | Cc1noc(C)c1CCC(=O)NC(C)c1nnc2n1CCC2 (stereo not drawn) | 8.52
109 | Cc1ccc(C(C)NC(=O)Nc2ccccc2CN2CCOCC2)o1 (stereo not drawn) | -11.2
110 | CN(C(=O)C1CSCN1S(=O)(=O)c1ccc(F)cc1)C1CC1 (stereo not drawn) | -9.65
111 | CC(C)C(C)NC(=O)Nc1ccccc1CN1CCOCC1 (stereo not drawn) | -8.46
112 | c1cc(CNCc2ccnc(N3CCOCC3)c2)c2c(c1)OCCO2 | -9.77
113 | CC(=O)N(C)CC(=O)Nc1cccc(N2CCN(CC3CC3)CC2)c1 | -7.37
114 | Cc1cn(CC(=O)NC2CCN(C(=O)C3CC3)CC2)c2ccccc12 | -9.4
115 | Cc1cc2n(n1)CC(CNC1CCN(c3ccc(F)cc3)CC1)CN2 (stereo not drawn) | -5.25
116 | COCc1cccc(NC(C)C(=O)N(C)Cc2cccc(F)c2)c1 (stereo not drawn) | -2.97
117 | COc1ccc(CNC(=O)CNc2cc3c(cc2Cl)OCCCO3)cc1 | -5.19
118 | c1cc(CNCc2ccc3c(c2)CCO3)cc(N2CCOCC2)n1 | -9.64
